Literature values in publication PMC10339703 (Clinical and Translational Science, 2023).

Tests used:
patients with IPF [1] = conditions: commonly reported adverse effects; cited from earlier work
patients with IPF [2] = conditions: most common side effects; cited from earlier work

SMILES	diarrhea, incidence (patients with IPF [1]) [%]	elevation in liver function tests, incidence (patients with IPF [1]) [%]	rash, incidence (patients with IPF [2]) [%]
COC(=O)c1ccc2c(c1)NC(=O)/C2=C(\Nc1ccc(N(C)C(=O)CN2CCN(C)CC2)cc1)c1ccccc1 [Nintedanib]	62	14	–
Cc1ccc(=O)n(-c2ccccc2)c1 [Pirfenidone]	–	–	30
